In patent US20250223303A1, “TRICYCLIC BORONIC ACID DERIVATIVE, AND PREPARATION METHOD THEREFOR AND APPLICATION THEREOF” (priority 2021, published 2025):

Experiments:
[1] = tested on: Escherichia coli ARLG 2829; test: MIC test of compounds in combination with antibiotics, Escherichia coli ARLG 2829; conditions: for MIC of biapenem in combination with compound, Escherichia coli ARLG-2829 NDM-5, OXA-1: Biapenem + compound (8 μg/mL); for MIC of meropenem in combination with compound, Escherichia coli ARLG-2829 NDM-5, OXA-1: Meropenem + compound (8 μg/mL)
[2] = tested on: Acinetobacter baumannii WX-AB005; test: MIC test of compounds in combination with antibiotics, Acinetobacter baumannii WX-AB005; conditions: for MIC of biapenem in combination with compound, Acinetobacter baumannii WX-AB005: Biapenem + compound (8 μg/mL); for MIC of meropenem in combination with compound, Acinetobacter baumannii WX-AB005: Meropenem + compound (8 μg/mL)
[3] = tested on: Klebsiella pneumoniae ATCC BAA-1705; test: MIC test of compounds in combination with antibiotics, Klebsiella pneumoniae ATCC BAA-1705; conditions: for MIC of biapenem in combination with compound, Klebsiella pneumoniae ATCC BAA-1705 KPC-2: Biapenem + compound (8 μg/mL); for MIC of meropenem in combination with compound, Klebsiella pneumoniae ATCC BAA-1705 KPC-2: Meropenem + compound (8 μg/mL)
[4] = tested on: Acinetobacter baumannii ARLG-1791 OXA-23; test: MIC test of compounds in combination with antibiotics, Acinetobacter baumannii ARLG-1791; conditions: for MIC of biapenem in combination with compound, Acinetobacter baumannii ARLG-1791 OXA-23: Biapenem + compound (8 μg/mL); for MIC of meropenem in combination with compound, Acinetobacter baumannii ARLG-1791 OXA-23: Meropenem + compound (8 μg/mL)
[5] = tested on: Acinetobacter baumannii ARLG-1852 OXA-23; test: MIC test of compounds in combination with antibiotics, Acinetobacter baumannii ARLG-1852; conditions: for MIC of biapenem in combination with compound, Acinetobacter baumannii ARLG-1852 OXA-23: Biapenem + compound (8 μg/mL); for MIC of meropenem in combination with compound, Acinetobacter baumannii ARLG-1852 OXA-23: Meropenem + compound (8 μg/mL)
[6] = tested on: Acinetobacter baumannii ARLG-1853 OXA-23; test: MIC test of compounds in combination with antibiotics, Acinetobacter baumannii ARLG-1853; conditions: for MIC of biapenem in combination with compound, Acinetobacter baumannii ARLG-1853 OXA-23: Biapenem + compound (8 μg/mL); for MIC of meropenem in combination with compound, Acinetobacter baumannii ARLG-1853 OXA-23: Meropenem + compound (8 μg/mL)
[7] = tested on: Klebsiella pneumoniae ATCC BAA-2470; test: MIC test of compounds in combination with antibiotics, Klebsiella pneumoniae ATCC BAA-2470; conditions: for MIC of biapenem in combination with compound, Klebsiella pneumoniae ATCC BAA-2470 NDM-1: Biapenem + compound (8 μg/mL); for MIC of meropenem in combination with compound, Klebsiella pneumoniae ATCC BAA-2470 NDM-1: Meropenem + compound (8 μg/mL)
[8] = tested on: Klebsiella pneumoniae ARLG 1196; test: MIC test of compounds in combination with antibiotics, Klebsiella pneumoniae ARLG 1196; conditions: for MIC of biapenem in combination with compound, Klebsiella pneumoniae ARLG-1196 CTM-1 group, SHV, NDM, TEM: Biapenem + compound (8 μg/mL); for MIC of meropenem in combination with compound, Klebsiella pneumoniae ARLG-1196 CTM-1 group, SHV, NDM, TEM: Meropenem + compound (8 μg/mL)
[9] = tested on: Acinetobacter baumannii WX-AB013; test: MIC test of compounds in combination with antibiotics, Acinetobacter baumannii WX-AB013; conditions: for MIC of biapenem in combination with compound, Acinetobacter baumannii WX-AB013: Biapenem + compound (8 μg/mL); for MIC of meropenem in combination with compound, Acinetobacter baumannii WX-AB013: Meropenem + compound (8 μg/mL)
[10] = tested on: Acinetobacter baumannii ARLG-1809 OXA-23; test: MIC test of compounds in combination with antibiotics, Acinetobacter baumannii ARLG-1809; conditions: for MIC of biapenem in combination with compound, Acinetobacter baumannii ARLG-1809 OXA-23: Biapenem + compound (8 μg/mL); for MIC of meropenem in combination with compound, Acinetobacter baumannii ARLG-1809 OXA-23: Meropenem + compound (8 μg/mL)

Row | SMILES | MIC of biapenem in combination with compound, Escherichia coli ARLG-2829 NDM-5, OXA-1 [1] | MIC of meropenem in combination with compound, Escherichia coli ARLG-2829 NDM-5, OXA-1 [1] | MIC of biapenem in combination with compound, Acinetobacter baumannii WX-AB005 [2] | MIC of meropenem in combination with compound, Acinetobacter baumannii WX-AB005 [2] | MIC of biapenem in combination with compound, Klebsiella pneumoniae ATCC BAA-1705 KPC-2 [3] | MIC of meropenem in combination with compound, Klebsiella pneumoniae ATCC BAA-1705 KPC-2 [3] | MIC of biapenem in combination with compound, Acinetobacter baumannii ARLG-1791 OXA-23 [4] | MIC of meropenem in combination with compound, Acinetobacter baumannii ARLG-1791 OXA-23 [4] | MIC of biapenem in combination with compound, Acinetobacter baumannii ARLG-1852 OXA-23 [5] | MIC of meropenem in combination with compound, Acinetobacter baumannii ARLG-1852 OXA-23 [5] | MIC of biapenem in combination with compound, Acinetobacter baumannii ARLG-1853 OXA-23 [6] | MIC of meropenem in combination with compound, Acinetobacter baumannii ARLG-1853 OXA-23 [6] | MIC of biapenem in combination with compound, Klebsiella pneumoniae ATCC BAA-2470 NDM-1 [7] | MIC of meropenem in combination with compound, Klebsiella pneumoniae ATCC BAA-2470 NDM-1 [7] | MIC of biapenem in combination with compound, Klebsiella pneumoniae ARLG-1196 CTM-1 group, SHV, NDM, TEM [8] | MIC of meropenem in combination with compound, Klebsiella pneumoniae ARLG-1196 CTM-1 group, SHV, NDM, TEM [8] | MIC of biapenem in combination with compound, Acinetobacter baumannii WX-AB013 [9] | MIC of meropenem in combination with compound, Acinetobacter baumannii WX-AB013 [9] | MIC of biapenem in combination with compound, Acinetobacter baumannii ARLG-1809 OXA-23 [10] | MIC of meropenem in combination with compound, Acinetobacter baumannii ARLG-1809 OXA-23 [10]
1 | CC(Sc1ccc2c(c1C(=O)O)OB(O)C1CC21)C1CC1 (single isomer, unassigned) [Compound 16-c] | ≤0.125 mg/L | 4 mg/L | 4 mg/L | 8 mg/L | 1 mg/L | 8 mg/L | 1 mg/L | 8 mg/L | 1 mg/L | 4 mg/L | 1 mg/L | 4 mg/L | 0.5 mg/L | 8 mg/L | 1 mg/L | 2 mg/L | 2 mg/L | 4 mg/L | 2 mg/L | 4 mg/L
2 | CC(Sc1ccc2c(c1C(=O)O)OB(O)C1CC21)C1CC1 (single isomer, unassigned) [Compound 16-d] | ≤0.125 mg/L | 0.5 mg/L | 2 mg/L | 8 mg/L | 0.5 mg/L | 2 mg/L | 0.5 mg/L | 8 mg/L | 0.25 mg/L | 2 mg/L | 0.25 mg/L | 2 mg/L | 0.25 mg/L | 0.5 mg/L | ≤0.125 mg/L | 0.25 mg/L | 0.5 mg/L | 4 mg/L | 0.5 mg/L | 4 mg/L
3 | CC(Sc1ccc2c(c1C(=O)O)OB(O)C1CC21)C1CCOCC1 (single isomer, unassigned) [Compound 17-a] | 0.25 mg/L | 8 mg/L | 4 mg/L | 32 mg/L | 0.5 mg/L | 8 mg/L | 2 mg/L | 16 mg/L | 0.5 mg/L | 4 mg/L | 1 mg/L | 8 mg/L | 0.25 mg/L | 32 mg/L | 0.5 mg/L | 8 mg/L | 1 mg/L | 8 mg/L | 4 mg/L | 32 mg/L
4 | CC(Sc1ccc2c(c1C(=O)O)OB(O)C1CC21)C1CCOCC1 (single isomer, unassigned) [Compound 17-b] | 0.25 mg/L | 4 mg/L | 4 mg/L | 32 mg/L | 2 mg/L | 8 mg/L | 2 mg/L | 16 mg/L | 0.5 mg/L | 8 mg/L | 1 mg/L | 16 mg/L | 0.25 mg/L | 64 mg/L | 0.5 mg/L | 8 mg/L | 2 mg/L | 16 mg/L | 4 mg/L | 32 mg/L

Continued, values first:

Row | MIC of biapenem in combination with compound, Escherichia coli ARLG-2829 NDM-5, OXA-1 [1] | MIC of meropenem in combination with compound, Escherichia coli ARLG-2829 NDM-5, OXA-1 [1] | MIC of biapenem in combination with compound, Acinetobacter baumannii WX-AB005 [2] | MIC of meropenem in combination with compound, Acinetobacter baumannii WX-AB005 [2] | MIC of biapenem in combination with compound, Klebsiella pneumoniae ATCC BAA-1705 KPC-2 [3] | MIC of meropenem in combination with compound, Klebsiella pneumoniae ATCC BAA-1705 KPC-2 [3] | MIC of biapenem in combination with compound, Acinetobacter baumannii ARLG-1791 OXA-23 [4] | MIC of meropenem in combination with compound, Acinetobacter baumannii ARLG-1791 OXA-23 [4] | MIC of biapenem in combination with compound, Acinetobacter baumannii ARLG-1852 OXA-23 [5] | MIC of meropenem in combination with compound, Acinetobacter baumannii ARLG-1852 OXA-23 [5] | MIC of biapenem in combination with compound, Acinetobacter baumannii ARLG-1853 OXA-23 [6] | MIC of meropenem in combination with compound, Acinetobacter baumannii ARLG-1853 OXA-23 [6] | MIC of biapenem in combination with compound, Klebsiella pneumoniae ATCC BAA-2470 NDM-1 [7] | MIC of meropenem in combination with compound, Klebsiella pneumoniae ATCC BAA-2470 NDM-1 [7] | MIC of biapenem in combination with compound, Klebsiella pneumoniae ARLG-1196 CTM-1 group, SHV, NDM, TEM [8] | MIC of meropenem in combination with compound, Klebsiella pneumoniae ARLG-1196 CTM-1 group, SHV, NDM, TEM [8] | MIC of biapenem in combination with compound, Acinetobacter baumannii WX-AB013 [9] | MIC of meropenem in combination with compound, Acinetobacter baumannii WX-AB013 [9] | MIC of biapenem in combination with compound, Acinetobacter baumannii ARLG-1809 OXA-23 [10] | MIC of meropenem in combination with compound, Acinetobacter baumannii ARLG-1809 OXA-23 [10] | SMILES
5 | ≤0.125 mg/L | 2 mg/L | 4 mg/L | 8 mg/L | 0.5 mg/L | 1 mg/L | 0.5 mg/L | 8 mg/L | 0.5 mg/L | 2 mg/L | 0.5 mg/L | 2 mg/L | 0.5 mg/L | 8 mg/L | ≤0.125 mg/L | 2 mg/L | 0.5 mg/L | 4 mg/L | 2 mg/L | 4 mg/L | C[C@H](Sc1ccc2c(c1C(=O)O)OB(O)[C@@H]1C[C@H]21)[C@@H]1CCCO1 [Compound 18-a]
6 | 0.5 mg/L | 8 mg/L | 4 mg/L | 8 mg/L | 0.5 mg/L | 0.5 mg/L | 1 mg/L | 8 mg/L | 1 mg/L | 8 mg/L | 1 mg/L | 4 mg/L | 0.5 mg/L | 16 mg/L | ≤0.125 mg/L | 4 mg/L | 1 mg/L | 4 mg/L | 4 mg/L | 8 mg/L | C[C@@H](Sc1ccc2c(c1C(=O)O)OB(O)[C@H]1C[C@@H]21)[C@@H]1CCCO1 [Compound 18-d]
